Results published in ChEMBL document CHEMBL1201862, “PubChem BioAssay data set” (2004).
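Values below derive from 48-hour exposures of cells grown in 96-well plates, with endpoints linearly interpolated between the two concentrations bracketing the appropriate inhibition level. GI50: concentration for 50% inhibition of growth.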 Activity calls are given as the source filed them. Cut-off read from the data, not from the text of the source: active = GI50 up to about 1.1 µM and inactive = higher.

Legend:
Assay in all cases: NCI anticancer screen, dose series, 48 h
T47D = tested on: T47D
SF-295 = tested on: SF-295
UACC-257 = tested on: UACC-257
DU-145 = tested on: DU-145
UACC-62 = tested on: UACC-62
PC-3 = tested on: PC-3
OVCAR-5 = tested on: OVCAR-5
U-251 = tested on: U-251
SN12C = tested on: SN12C
SK-MEL-5 = tested on: SK-MEL-5
CCRF-CEM = tested on: CCRF-CEM
COLO 205 = tested on: COLO 205
OVCAR-4 = tested on: OVCAR-4
SW-620 = tested on: SW-620
SNB-19 = tested on: SNB-19
SK-MEL-28 = tested on: SK-MEL-28
MCF7 = tested on: MCF7
NCI-H226 = tested on: NCI-H226
MOLT-4 = tested on: MOLT-4
Malme-3M = tested on: Malme-3M

| SMILES | GI50 (T47D) | GI50 (SF-295) | GI50 (UACC-257) | GI50 (DU-145) | GI50 (UACC-62) | GI50 (PC-3) | GI50 (OVCAR-5) | GI50 (U-251) | GI50 (SN12C) | GI50 (SK-MEL-5) | GI50 (CCRF-CEM) | GI50 (COLO 205) | GI50 (OVCAR-4) | GI50 (SW-620) | GI50 (SNB-19) | GI50 (SK-MEL-28) | GI50 (MCF7) | GI50 (NCI-H226) | GI50 (MOLT-4) | GI50 (Malme-3M) |
| --- | --- | --- | --- | --- | --- | --- | --- | --- | --- | --- | --- | --- | --- | --- | --- | --- | --- | --- | --- | --- |
| O=C1CC(c2cccc(Cl)c2)Nc2ccc(N3CCCC3)cc21 (centres undefined) | > 100 µM (inactive) | 0.0439 µM (active) | 0.0687 µM (active) | 0.0391 µM (active) | 0.0537 µM (active) | 0.0343 µM (active) | 0.526 µM (active) | 0.0314 µM (active) | 0.0552 µM (active) | 0.0305 µM (active) | 0.0302 µM (active) | 0.194 µM (active) | 6.89 µM (inactive) | 0.0266 µM (active) | 0.0332 µM (active) | 0.189 µM (active) | 0.555 µM (active) | 0.0721 µM (active) | 0.0802 µM (active) |  |
| O=C(O)c1cc(C(=O)O)cc(N2C(=O)c3ccccc3C2=O)c1 | > 100 µM (inactive) | > 100 µM (inactive) | > 100 µM (inactive) | > 100 µM (inactive) | > 100 µM (inactive) | > 100 µM (inactive) | > 100 µM (inactive) | > 100 µM (inactive) | > 100 µM (inactive) | > 100 µM (inactive) |  | > 100 µM (inactive) | > 100 µM (inactive) | > 100 µM (inactive) | > 100 µM (inactive) | > 100 µM (inactive) | > 100 µM (inactive) | > 100 µM (inactive) |  | > 100 µM (inactive) |
| Cn1c(-c2ccccc2)c2cc3nc4ccccc4nc3cc2c1-c1ccccc1 | 24.5 µM (inactive) | 14.4 µM (inactive) | 56.2 µM (inactive) | 30.3 µM (inactive) | 11.7 µM (inactive) | 14.7 µM (inactive) | 52.2 µM (inactive) | 19.8 µM (inactive) | 13.3 µM (inactive) | 1.67 µM (inactive) |  | 2.26 µM (inactive) | 30 µM (inactive) | 15.8 µM (inactive) | 20.2 µM (inactive) | 34.9 µM (inactive) | 12.1 µM (inactive) |  | 21 µM (inactive) | 30.1 µM (inactive) |
| Cc1nn(C(=O)c2ccccc2O)c2c1C(c1ccc(O)cc1)SC(=N)N2 (centres undefined) | 1.23 µM (inactive) | 1.26 µM (inactive) | 0.805 µM (active) | 1.67 µM (inactive) | 0.929 µM (active) | > 3.03 µM (inactive) | > 6.35 µM (inactive) | 1.37 µM (inactive) | 1.79 µM (inactive) | > 3.08 µM (inactive) | 1.7 µM (inactive) | > 6.93 µM (inactive) | > 2.12 µM (inactive) | > 6.64 µM (inactive) | 8.41 µM (inactive) | > 10 µM (inactive) | > 2.36 µM (inactive) |  | 1.33 µM (inactive) | 0.601 µM (active) |
| COc1ccc(C(CC2(c3ccc(OC)cc3)SCCCS2)NC(C)=O)cc1 (centres undefined) | 24.2 µM (inactive) | 33.8 µM (inactive) | 26.2 µM (inactive) | 44.6 µM (inactive) | > 100 µM (inactive) | 23.8 µM (inactive) | > 100 µM (inactive) | 38.8 µM (inactive) | 29.6 µM (inactive) | 18.4 µM (inactive) | 21.9 µM (inactive) | 25.1 µM (inactive) |  | 47.8 µM (inactive) | 99.1 µM (inactive) | > 100 µM (inactive) | 37.2 µM (inactive) |  | 30.1 µM (inactive) | 86.9 µM (inactive) |
| CCCCCCCCNC(=O)C1=C(C)NC(C)=C(C(=O)NCCCCCCCC)C1 | 48.2 µM (inactive) | > 100 µM (inactive) | > 100 µM (inactive) | > 100 µM (inactive) | > 100 µM (inactive) | 80 µM (inactive) | > 100 µM (inactive) | 94.4 µM (inactive) | > 100 µM (inactive) | > 100 µM (inactive) | 39.6 µM (inactive) | > 100 µM (inactive) | > 100 µM (inactive) | > 100 µM (inactive) | > 100 µM (inactive) |  | > 100 µM (inactive) | > 100 µM (inactive) | > 100 µM (inactive) |  |
| O=C(O)c1c[nH]c2c(Sc3ccccc3)nccc2c1=O | > 100 µM (inactive) | > 100 µM (inactive) | > 100 µM (inactive) | > 100 µM (inactive) | > 100 µM (inactive) | > 100 µM (inactive) | > 100 µM (inactive) | > 100 µM (inactive) | > 100 µM (inactive) | > 100 µM (inactive) | 47 µM (inactive) | > 100 µM (inactive) | > 100 µM (inactive) | > 100 µM (inactive) | > 100 µM (inactive) | > 100 µM (inactive) | > 100 µM (inactive) | > 100 µM (inactive) | > 100 µM (inactive) |  |
| COc1cc(C(=O)Oc2ccc3c(c2)OCO3)cc(OC)c1OC | > 100 µM (inactive) | > 100 µM (inactive) | > 100 µM (inactive) | > 100 µM (inactive) | > 100 µM (inactive) | > 100 µM (inactive) | > 100 µM (inactive) | > 100 µM (inactive) | > 100 µM (inactive) | > 100 µM (inactive) |  | > 100 µM (inactive) | > 100 µM (inactive) | > 100 µM (inactive) | > 100 µM (inactive) | > 100 µM (inactive) | > 100 µM (inactive) | > 100 µM (inactive) | > 100 µM (inactive) | > 100 µM (inactive) |
| CN(C)CCNC(=O)c1cccc2c(NC(CS)C(=O)O)c3ccccc3[n+](C)c12 (centres undefined) | 64.9 µM (inactive) | > 100 µM (inactive) | 60.3 µM (inactive) | 37.6 µM (inactive) | 61.2 µM (inactive) | 49 µM (inactive) | > 100 µM (inactive) | > 100 µM (inactive) | 49.4 µM (inactive) | 47 µM (inactive) |  | 43.9 µM (inactive) | > 100 µM (inactive) | 39.7 µM (inactive) | 84.7 µM (inactive) | > 100 µM (inactive) | 95.5 µM (inactive) |  | 41.9 µM (inactive) | 30.2 µM (inactive) |
| CC(Nc1cc(Cl)cc(Cl)c1)c1ccncc1 (centres undefined) | 7.85 µM (inactive) | 18.5 µM (inactive) | 22.8 µM (inactive) | > 10 µM (inactive) |  | 12.1 µM (inactive) | 16.2 µM (inactive) | 17.9 µM (inactive) | > 10 µM (inactive) | 15.4 µM (inactive) | 15.3 µM (inactive) | 15.6 µM (inactive) | 38.9 µM (inactive) | 17.4 µM (inactive) | 33.8 µM (inactive) | 30.6 µM (inactive) | 16.2 µM (inactive) | 11.5 µM (inactive) | 13.9 µM (inactive) | 27.7 µM (inactive) |
| O=C(CSCC(=O)N/N=C/c1cccc(C(F)(F)F)c1)N/N=C/c1cccc(C(F)(F)F)c1 | > 100 µM (inactive) | > 100 µM (inactive) | > 100 µM (inactive) | > 100 µM (inactive) | > 100 µM (inactive) | > 100 µM (inactive) | > 100 µM (inactive) |  |  | > 100 µM (inactive) |  |  |  |  | > 100 µM (inactive) | > 100 µM (inactive) | > 100 µM (inactive) | > 100 µM (inactive) |  | > 100 µM (inactive) |
| COc1ccc(/N=N/C(=N\c2ccc(F)cc2)c2ccc(N(CCC#N)CCC#N)cc2)cc1 | 11.2 µM (inactive) | 32.9 µM (inactive) | 19 µM (inactive) | 33 µM (inactive) | 15.7 µM (inactive) | 24.1 µM (inactive) | 52.1 µM (inactive) | 13.9 µM (inactive) | 31.8 µM (inactive) | 12.4 µM (inactive) | 36.1 µM (inactive) | 39.2 µM (inactive) | 40.9 µM (inactive) | 41.6 µM (inactive) | 31.9 µM (inactive) | 39 µM (inactive) | 28.4 µM (inactive) | > 100 µM (inactive) | 31.2 µM (inactive) |  |
| CCCCNC(=S)Nc1nc(C(=O)NNS(=O)(=O)c2ccccc2)cs1 | 71.8 µM (inactive) | 36.2 µM (inactive) | 22.9 µM (inactive) | 35.5 µM (inactive) | 22.9 µM (inactive) | 29 µM (inactive) | 42 µM (inactive) | 39.5 µM (inactive) | 25.6 µM (inactive) | 17 µM (inactive) | 44.3 µM (inactive) | 17.9 µM (inactive) |  |  |  |  | 42 µM (inactive) | > 10 µM (inactive) | 34.8 µM (inactive) | 28.9 µM (inactive) |
| COC1C(OC(N)=O)C(O)C(Oc2ccc3c(O)c(NC(=O)c4ccc(O)c(CC=C(C)C)c4)c(=O)oc3c2C)OC1(C)C (centres undefined) | > 100 µM (inactive) |  | > 100 µM (inactive) | > 100 µM (inactive) | 69.2 µM (inactive) | > 100 µM (inactive) | > 100 µM (inactive) | 99.5 µM (inactive) | > 100 µM (inactive) | > 100 µM (inactive) | 77.8 µM (inactive) | > 100 µM (inactive) |  | > 100 µM (inactive) | > 100 µM (inactive) | 73.8 µM (inactive) | > 100 µM (inactive) |  | 48 µM (inactive) | > 100 µM (inactive) |
| C=C(C)C12OC1[C@@]1(C)C(=CC2=O)CCC(O)[C@@H]1C (some centres undefined) | 3.16 µM (inactive) | 2.58 µM (inactive) | 3.34 µM (inactive) | 1.05 µM (active) | 3.66 µM (inactive) | 2.65 µM (inactive) | 8.51 µM (inactive) | 1.14 µM (inactive) | 1.36 µM (inactive) | 3.22 µM (inactive) | 0.726 µM (active) | 1.61 µM (inactive) | 3.45 µM (inactive) | 2.39 µM (inactive) | 1.69 µM (inactive) | 3.89 µM (inactive) | 3.53 µM (inactive) |  | 0.863 µM (active) | 3.38 µM (inactive) |
